# Data reported in patent publication US20240238228A1, “COMPOSITIONS AND METHODS FOR TREATING ALLERGIES AND INFLAMMATORY CONDITIONS” (UNIVERSITY OF PITTSBURGH-OF THE COMMONWEALTH SYSTEM OF …, priority 2021, published 2024).
# Read-outs that look alike come from different tables or passages of the source.
# Tests used:
# [1] = tested on: inflammasome; settings: cited from earlier work
# [2] = tested on: peanut allergy; test: Peanut allergy desensitization by microneedle arrays; assay type: in vivo, mouse; settings: delivered with peanut antigen by microneedle arrays to sensitized mice
# [3] = tested on: ABCA1; test: Surface ABCA1 expression on activated PMCs (flow cytometry); assay type: cell-based, murine; settings: 30 minutes after IgE-initiated activation; NKA 1000 nM
# Procedure: MCs were collected and washed with PBS containing 0.5% BSA and 0.1% sodium azide. Non-specific binding was inhibited using FcBlock (PBS with 2.0% goat serum and 0.25 mg/mL anti-CD16/32 (clone 2.4G2, BD Biosciences). Surface staining was done with anti-CD117 eFluor450 (clone 2B8, ThermoFisher), anti-FcεRI FITC (clone MAR-1, ThermoFisher) and anti-ABCA1 Alexa Fluor 647 (clone 5A1-1422, BioRad). Cells were washed with Wash Buffer (PBS with 0.5% BSA and 0.1% sodium azide). To detect differences in granulated proteins at the cell surface, IgE-loaded MCs were activated with DNP-HSA with or without NKA in Tyrode's Buffer for 30 min, washed with Wash Buffer then stained with Avidin Alexa Fluor488 (Invitrogen, Av488, 0.8 μg/5×10^5 cells) and anti-LAMP-1 PE (clone eBio 1D48, ThermoFisher). Data were acquired on either a LSRII or a Fortessa (BD BioSciences). Analysis was performed with FlowJo v10.4 (BD Biosciences).
# [4] = tested on: IL10-eGFP^+ MCs; test: IL-10-GFP expression in skin mast cells of VERT-X reporter mice; assay type: in vivo, mouse; settings: with and without PCA induction
# Procedure: C6(Cg)-IL10^tm1.1.Karp/J (VERT-X) mice (Jackson Laboratories) were bred at the University of Pittsburgh. On d0, mice were treated with vehicle on one ear and IgE on the contralateral ear. On day 1, mice were treated with either NKA ([…]) on both ears or vehicle on both ears. Three hours later, PCA was induced. On day 2, mice were euthanized. Excised Ear tissue was digested in IMDM media (Life Technologies) containing collagenase D (Sigma, 1.0 mg/mL) and DNAase (Roche, 1.0 mg/mL) at 37 C for 45 minutes. Single cell homogenates were blocked with FcBlock and stained. In some experiments, avidin AlexaFluro488 was injected intradermally to label cutaneous mast cells were labelled in vivo. Mice were euthanized 7 days after injection.
# In other methods, mast cells differentiated for 5-7 weeks (BMMCs) or 3-4 weeks (PMCs) were collected, blocked with FcBlock and stained with anti-FceRI PE (clone MAR-1, Biolegend), anti-CD117 eFluor 450 clone 2B8, ThermoFisher) and anti-NK2R Alexa Fluor 647 or rabbit IgG Alexa Fluor 647 isotype control (Cell Signaling Technology). […]
# [5] = tested on: allergic contact hypersensitivity (CHS); settings: NKA administration, cited from earlier work
# [6] = tested on: connective tissue MCs from the skin, the heart, or peritoneal MCs; settings: cited from earlier work
# [7] = tested on: mucosal MCs from the lung; settings: cited from earlier work
# [8] = tested on: IL10 mRNA; test: IL10 mRNA in ear skin 3 h after NKA injection; assay type: in vivo, mouse
# Procedure: Total RNA was isolated from either MCs or murine ear tissue 3 h hours after NKA injection. Tissue was homogenized in Navy RINO tubes (Next Advance) in a Bullet Blender Storm (Next Advance). RNA was extracted per standard methods with Trizol (Invitrogen). cDNA was reversed transcribed with the Quantitech Reverse Transcription Kit (Qiagen). PCR products were amplified with Fast SybrGreen (ABI) on a StepOne Plus Cycler ([…]) using the following primers: TNF […] NO: 5), TNF […] NO: 6); IL13 […] NO: 7), IL13 […] NO: 8); IL10 […] NO: 9); IL10 […] NO: 10); Bactin […] NO: 11); Bactin […] NO: 12). Data are presented as 2^-ΔΔCT using f-actin as the housekeeping gene and normalizing to either untreated cells or naïve control mice.
# [9] = tested on: MCs; settings: previous studies; cited from earlier work
# [10] = tested on: BMMCs; test: MS/MS shotgun proteomics on BMMC releasate; assay type: cell-based, murine
# Procedure: BMMCs (4×10^6) were activated in Tyrode's Buffer without BSA (500 μl) for 1 hour. Protease Inhibitor Cocktail (Sigma, containing aprotinin, bestatin, E-64, leupeptin and pepstatin A) was added to cell free supernatants. Supernatants were concentrated using Amicon Ultra Centrifugal Filters-3K (EID Millipore). Protein concentrations were quantified with the BCA Protein Assay Kit (ThermoFisher). Tryptic peptides were generated with the filter-aided sample preparation method, desalted with C18 spin columns and dried in aspeedvac. Peptides were reconstituted in 0.5% formic acid in 96:4 water:acetonitrile and resolved with liquid chromatography tandem mass spectrometry with a system composed of a Waters nanoACQUITY UPLC in-line with a Q-Exactive mass spectrometer (ThermoFisher). Solvent A (0.1% formic acid in water, Burdick & Jackson) and solvent B (0.1% formic acid in acetonitrile, Burdick & Jackson) were used as the mobile phase. Peptides were then eluted from a capillary column (100 μm inner diameter×100 mm long; ACQUITY UPLC M-Class Peptide BEH C18 Column, 1.7-μm particle size, 300 Å (Waters), and resolved using a 100-min gradient at a flow rate of 0.9 μL/min (4-33% B for 90 min, 33-80% B for 2 min, constant at 80% B for 6 min, and then 80-0% B for 2 min to equilibrate the column). Data were collected in positive ionization mode. PEAKSX software was used to sequence and identify peptides in each sample using a decoy search at a 1.0% false discovery rate using the UniProt murine database. Label-free quantitation was performed using the quantitative module in the PEAKSX software. The MS proteomics data have been deposited to the ProteomeXchange Consortium via the PRIDE partner repository with the dataset identifier PXD021377. Pathway analysis for expressed proteins was done using the Panther Classification System.
Compound,inflammasome [1],allergy to peanut allergen after CPE challenge [2],ABCA1 detected on the cell surface [3],increase in percentage of IL10-eGFP^+ MCs [4],allergic contact hypersensitivity (CHS) in the skin [5],allergic contact hypersensitivity (CHS) in the skin ([5]; listed as Neurokinin A),histamine release [6],histamine release [7],IL10 mRNA in the skin ([8]; MC-deficient (Mcpt5Cre^+×Rosa26DTA^+) mice),IL10 mRNA levels in the skin ([8]; MC-sufficient (Mcpt5Cre^−×Rosa26DTA^+) mice),effect on MCs (β-hexosaminidase or histamine release as readouts) [9],"release of proteases β-hexosaminidase, MC carboxypeptidase, cathepsin D and chymase [10]",release of proteins associated with metabolism and cellular function pathways (pathway analysis) [10],number of proteins upregulated by NKA ([10]; BMMCs activated 60 minutes),catalytic subunit of calpain 1 in releasate ([10]; BMMCs activated in the presence of NKA)
"COc1ccc(Cl)cc1C(=O)NCCc1ccc(S(=O)(=O)NC(=O)NC2CCCCC2)cc1 [glyburide, reference compound]",inhibits,desensitizes,,,,,,,,,,,,,
Neurokinin A [NKA],,,reduced the level of ABCA1,two-fold,blocks,inhibits inflammation,not,induces histamine release,no difference,significantly increased,no effect,unchanged,inhibited,94,not detected
